IC50 data for 13 compounds are collected here from ChEMBL document CHEMBL5143762, “Novel Coronavirus Main Protease Di- and Tripeptide Inhibitors for Treating COVID-19” (ACS Med Chem Lett, 2022).

Bounds are passed on as bounds.

This assay has as its target Replicase polyprotein 1ab (Severe acute respiratory syndrome coronavirus 2, UniProt P0DTD1). The assay is described as follows: Inhibition of recombinant SARS-CoV-2 Main protease using TAMRA-SITSAVLQSGFRKMK-DABCYL-OH fluorogenic peptide as substrate preincubated or 30 mins followed by substrate addition by FRET assay.
On to `CC(C)C(=O)N[C@H](C(=O)N1C[C@H]2[C@@H]([C@H]1C(=O)N[C@H](C#N)C[C@@H]1CCNC1=O)C2(C)C)C(C)(C)C`, for which the IC50 (as a rule, the point on the concentration scale where inhibition reaches its midpoint) was < 100 nM.
`COc1cccc2[nH]c(C(=O)N3C[C@@H]4CCC[C@@H]4[C@H]3C(=O)N[C@@H](C[C@@H]3CCNC3=O)C(=O)CCl)cc12`: the IC50 is 100 nM.
As for `CC(C)(C)[C@H](NC(=O)Cc1ccccc1)C(=O)N1C[C@H]2[C@@H]([C@H]1C(=O)N[C@H](C#N)C[C@@H]1CCNC1=O)C2(C)C`, the figure is < 100 nM.
As for `COc1cccc2[nH]c(C(=O)N3C[C@@H]4CCC[C@@H]4[C@H]3C(=O)N[C@@H](C[C@@H]3CCNC3=O)C(=O)C(=O)NC3CCCCC3)cc12`, the figure is < 100 nM; as for `CC(=O)N[C@H](C(=O)N1C[C@H]2[C@@H]([C@H]1C(=O)N[C@H](C#N)C[C@@H]1CCNC1=O)C2(C)C)C(C)(C)C`, < 100 nM; as for `COc1cccc2[nH]c(C(=O)N3C[C@@H]4CCC[C@@H]4[C@H]3C(=O)N[C@H](C=O)C[C@@H]3CCNC3=O)cc12`, < 100 nM.
For the compound `COc1cccc2[nH]c(C(=O)N3C[C@@H]4CCC[C@@H]4[C@H]3C(=O)N[C@@H](C[C@@H]3CCNC3=O)C(=O)COC(=O)c3c(Cl)cccc3Cl)cc12`, the half-maximal inhibitory concentration (IC50) was < 100 nM.
In the case of `COc1cccc2[nH]c(C(=O)N3C[C@@H]4CCC[C@@H]4[C@H]3C(=O)N[C@@H](C[C@@H]3CCNC3=O)C(=O)CO)cc12` it was 100 nM; in that of `CC1(C)[C@@H]2[C@@H](C(=O)N[C@H](C#N)C[C@@H]3CCNC3=O)N(C(=O)c3cc4c(OC(F)F)cccc4[nH]3)C[C@@H]21`, 100 nM.
Consider `CCC(=O)N[C@H](C(=O)N1C[C@H]2[C@@H]([C@H]1C(=O)N[C@H](C#N)C[C@@H]1CCNC1=O)C2(C)C)C(C)(C)C`, for which the IC50 is < 100 nM.
As for `N#C[C@H](C[C@@H]1CCNC1=O)NC(=O)[C@@H]1CCCN1C(=O)c1cc2c(OC(F)F)cccc2[nH]1`, the IC50 is > 1000 nM.
In the case of `CC(C)(C)[C@H](NC(=O)C1CCCCC1)C(=O)N1C[C@H]2[C@@H]([C@H]1C(=O)N[C@H](C#N)C[C@@H]1CCNC1=O)C2(C)C` it was < 100 nM.
As for `CC(C)(C)C(=O)N[C@H](C(=O)N1C[C@H]2[C@@H]([C@H]1C(=O)N[C@H](C#N)C[C@@H]1CCNC1=O)C2(C)C)C(C)(C)C`, the figure is < 100 nM.
